The values below are quoted from earlier work in US20120264961A1, “FE3O4-M(AU-LIKE)-NANOPARTICLES FOR ANTIBODY-CONSERVING TARGET-SPECIFIC PLATIN DELIVERY” (Brown University, priority 2009, published 2012).

For the data set the following is noted: water solubility.

What is called solubility is the dissolved amount per volume that the medium holds. In the case of `N.N.O=C([O-])C1(C(=O)[O-])CCC1.[Pt+2]` [carboplatin], the solubility is 22 mg/mL.
